{"source": "patent US4162305A", "about": "“Antibiotic XK-99 and process for production thereof” (Abbott Laboratories, priority 1977, dated 1979)", "key": {"Staphylococcus aureus": {"test_system": "Staphylococcus aureus", "experiment": "Comparative antibacterial activity (MIC), agar dilution method, measured simultaneously", "type": "cell-based", "settings": "for Antibacterial activity [C], ratio of [A] to [B]: MIC Staphylococcus aureus / MIC Bacillus subtilis; for Antibacterial activity [A] (minimum inhibition concentration, MIC) / MIC: Staphylococcus aureus; for MIC: read-out: Antibacterial activity [A] (minimum inhibition concentration, MIC)", "description": "(§1) A comparative study of XK-99 with these antibiotics was conducted according to several procedures.\n(§2) ^1 Antibacterial activities (minimum inhibition concentration, MIC,\n(§3) γ/ml) of the individual antibiotics measured simultaneously\naccording to agar dilution method against [A] Staphylococcus aureus and […]"}, "Bacillus subtilis": {"test_system": "Bacillus subtilis", "experiment": "Comparative antibacterial activity (MIC), agar dilution method, measured simultaneously", "type": "cell-based", "settings": "for MIC: read-out: Antibacterial activity [B] (minimum inhibition concentration, MIC)", "description": "as §1, §2, §3\naccording to agar dilution method against [A] Staphylococcus aureus and\n[B]Bacillus subtilis, and [C] ratio of [A] to\n^2 Rf values of the individual antibiotics on paper chromatography, […]"}, "[1]": {"settings": "agar dilution method, measured simultaneously"}}, "note": "Like-named read-outs stand apart in the source and are kept apart here. Numbered stars: 1 amine (or outer) side, 2 acyl side, 3 side chain; on linkers, the order of the positions; unused ones are H or OH. Bridge positions count the residues as written; N and C are the ends. Square brackets hold non-standard residues; d marks the D form. Peptide text beside a SMILES is read from it. I, II: the chains in the order shown. Actinocin(9to1) = Cc1c2oc3c(C)ccc(C(=O)[*:1])c3nc-2c(C(=O)[*:2])c(N)c1=O; NMeV = CN[C@H](C(=O)O)C(C)C; Sar = CNCC(=O)O"}
{"compound": "CO[C@H]1/C=C/O[C@@]2(C)Oc3c(C)c(O)c4c(c3C2=O)C(=O)C=C(NC(=O)/C(C)=C\\C=C\\[C@H](C)[C@H](O)[C@@H](C)[C@@H](O)[C@@H](C)[C@H](OC(C)=O)[C@@H]1C)C4=O", "note": "[Rifamycin S]", "values": [{"measurement": "Antibacterial activity [C], ratio of [A] to [B]", "setting": "Staphylococcus aureus", "value": "< 0.05"}, {"measurement": "Antibacterial activity [A] (minimum inhibition concentration, MIC)", "setting": "Staphylococcus aureus; [1]", "value": "< 4.5", "unit": "ng/mL"}, {"measurement": "Antibacterial activity [B] (minimum inhibition concentration, MIC)", "setting": "Bacillus subtilis; [1]", "value": 0.09, "unit": "µg/mL"}]}
{"compound": "Cc1c2oc3c(C)ccc(C(=O)N[C@@H]4C(=O)N[C@H](C(C)C)C(=O)N5CCC[C@H]5C(=O)N(C)CC(=O)N(C)[C@@H](C(C)C)C(=O)O[C@@H]4C)c3nc-2c(C(=O)N[C@@H]2C(=O)N[C@H](C(C)C)C(=O)N3CCC[C@H]3C(=O)N(C)CC(=O)N(C)[C@@H](C(C)C)C(=O)O[C@@H]2C)c(N)c1=O", "note": "[Actinomycin D] (I: T[dV]P[Sar][NMeV] / II: T[dV]P[Sar][NMeV]; ester I:1-I:C, II:1-II:C; linker I:N-II:N via Actinocin(9to1))", "values": [{"measurement": "Antibacterial activity [C], ratio of [A] to [B]", "setting": "Staphylococcus aureus", "value": 4}, {"measurement": "MIC", "setting": "Staphylococcus aureus", "value": 0.084, "unit": "µg/mL"}, {"measurement": "MIC", "setting": "Bacillus subtilis", "value": 0.021, "unit": "µg/mL"}]}
{"compound": "COc1cccc2c1C(=O)c1c(O)c3c(c(O)c1C2=O)C[C@@](O)(C(C)=O)C[C@@H]3O[C@H]1C[C@H](N)[C@H](O)[C@H](C)O1", "note": "[Daunomycin]", "values": [{"measurement": "Antibacterial activity [C], ratio of [A] to [B]", "setting": "Staphylococcus aureus", "value": 4}, {"measurement": "MIC", "setting": "Staphylococcus aureus; [1]", "value": 2.8, "unit": "µg/mL"}, {"measurement": "MIC", "setting": "Bacillus subtilis; [1]", "value": 0.7, "unit": "µg/mL"}]}
{"compound": "COc1cccc2c1C(=O)c1c(O)c3c(c(O)c1C2=O)C[C@@](O)(C(=O)CO)C[C@@H]3O[C@H]1C[C@H](N)[C@H](O)[C@H](C)O1", "note": "[Adriamycin]", "values": [{"measurement": "Antibacterial activity [C], ratio of [A] to [B]", "setting": "Staphylococcus aureus", "value": 8}, {"measurement": "MIC", "setting": "Staphylococcus aureus; [1]", "value": 5.6, "unit": "µg/mL"}, {"measurement": "MIC", "setting": "Bacillus subtilis; [1]", "value": 0.7, "unit": "µg/mL"}]}
{"compound": "Acrasinomycin", "values": [{"measurement": "Antibacterial activity [C], ratio of [A] to [B]", "setting": "Staphylococcus aureus", "value": 4}, {"measurement": "Antibacterial activity [A] (minimum inhibition concentration, MIC)", "setting": "Staphylococcus aureus; [1]", "value": 680, "unit": "ng/mL"}, {"measurement": "Antibacterial activity [B] (minimum inhibition concentration, MIC)", "setting": "Bacillus subtilis; [1]", "value": 0.17, "unit": "µg/mL"}]}
{"compound": "Halomicin B", "values": [{"measurement": "Antibacterial activity [C], ratio of [A] to [B]", "setting": "Staphylococcus aureus", "value": "< 0.05"}, {"measurement": "Antibacterial activity [A] (minimum inhibition concentration, MIC)", "setting": "Staphylococcus aureus; [1]", "value": "< 4.5", "unit": "ng/mL"}, {"measurement": "Antibacterial activity [B] (minimum inhibition concentration, MIC)", "setting": "Bacillus subtilis; [1]", "value": 0.09, "unit": "µg/mL"}]}
